Reference: PMC10660311 (ACS Chemical Biology, 2023)

Columns and labels:
[1] = molecular target: T1, DTX3L/PARP9 complex (Homo sapiens, UniProt Q8IXQ6+Q8TDB6); assay: FP binding of fluorescent AR peptides to DTX3L/PARP9 complex; conditions: 50 nM peptide, RT 45 min, triplicate
T1 construct: made in house; host or cells: Sf21 insect cells
Procedure: Figure 2 Interaction of DTX3L/PARP9 and ADP-ribosylated AR peptides measured by FP assays. […] The reaction mixture was incubated at RT for 45 min, FP measured in a PHERAstar FSX Microplate Reader (BMG Labtech), and the binding curves were fitted for specific binding with GraphPad Prism v 9.3.1. The error bars represent the standard deviations.
Recombinant PARP9, DTX3L, and DTX3LΔN (N-terminal deletion mutant) were expressed in Sf21 insect cells and purified as previously described.[14] Complex formation of DTX3L/PARP9 or DTX3LΔN/PARP9 was carried out in an equal-molar ratio by incubating the proteins at >1 mg mL^–1 for each on ice for ∼4 h. Fluorescently labeled AR peptides (50 nM final concentration) 1–5 were mixed with various concentrations of the individual recombinant proteins or the protein complexes in a reaction buffer containing 20 mM Tris–HCl (pH 7.5), 50 mM NaCl, 0.1 mM EDTA, and 2 mM DTT, incubated at RT for 45 min and then measured in a PHERAstar FSX Microplate Reader (BMG Labtech). The assays were performed in triplicate. Competition assays were performed with 50 μM ADP-ribose. After correction for signals due to the fluorescent AR peptide alone, polarization values were plotted and analyzed with Prism (GraphPad) using nonlinear fit for specific binding with Hill slope.

[2] = molecular target: dual ADP-ribosylated AR peptide 1, bis-ADP-ribosylated AR(280-294): CF-RPTPC(ADPr)APLAEC(ADPr)KGSL-OH; assay: fluorescence polarisation; 50 nM CF-labelled AR peptide; recombinant protein or preassembled complex titrated (2500 nM or 2000 nM highest, 2-fold serial dilution); 20 mM Tris-HCl pH 7.5, 50 mM NaCl, 0.1 mM EDTA, 2 mM DTT; RT, 45 min; triplicate; fit for specific binding with Hill slope

| Kd [2] [µM] | Substance | binding to DTX3L/PARP9 (in words) [1] |
| --- | --- | --- |
|  | CF-Arg-Pro-Thr-Pro-Cys(5-O-adenosine-diphosphate-α-D-ribosyl)-Ala-Pro-Leu-Ala-OH [Peptide 3, CF-labeled mono-ADPr AR peptide] | near-background level of binding |
|  | CF-Pro-Leu-Ala-Glu-Cys(5-O-adenosine-diphosphate-α-D-ribosyl)-Lys-Gly-Ser-Leu-OH [Peptide 2, CF-labeled mono-ADPr AR peptide] | near-background level of binding |
|  | CF-RPTPCAPLAECKGSL-OH [Peptide 6] | did not bind significantly |
| > 0.5 | DTX3LΔN/PARP9 complex (from UniProt Q8TDB6 1-740; Q8IXQ6 1-854) |  |
